Values of other authors, collected in patent publication US11753385B2, “Method for producing kakeromycin and derivatives thereof” (OP BIO FACTORY CO., LTD., priority 2015, dated 2023).

Columns and labels:
[1] = system: pathogens of candidiasis; settings: background statement, in words only
[2] = system: PANC-1 pancreas cancer cell
[3] = system: HepG2 liver cancer cell

SMILES: CC=C(Cc1ccccc1)C12CC(O)CCN1O2 (stereo not drawn) [kakeromycin]
- antibacterial activity against pathogens of candidiasis [1]: strong antibacterial activity
- cytotoxicity [2]: shows cytotoxicity
- cytotoxicity [3]: shows cytotoxicity
